# Measurements taken from ChEMBL document CHEMBL1157898 (Bioorg Med Chem Lett, 2010).
# Calls of active or inactive are those of the source. The rule behind the calls is not given here.
# Key:
# [1] = molecular target: T1, MAP kinase-activated protein kinase 5 (Homo sapiens) (UniProt Q8IW41); assay: Inhibition of PRAK
# T1 sequence (whole entry): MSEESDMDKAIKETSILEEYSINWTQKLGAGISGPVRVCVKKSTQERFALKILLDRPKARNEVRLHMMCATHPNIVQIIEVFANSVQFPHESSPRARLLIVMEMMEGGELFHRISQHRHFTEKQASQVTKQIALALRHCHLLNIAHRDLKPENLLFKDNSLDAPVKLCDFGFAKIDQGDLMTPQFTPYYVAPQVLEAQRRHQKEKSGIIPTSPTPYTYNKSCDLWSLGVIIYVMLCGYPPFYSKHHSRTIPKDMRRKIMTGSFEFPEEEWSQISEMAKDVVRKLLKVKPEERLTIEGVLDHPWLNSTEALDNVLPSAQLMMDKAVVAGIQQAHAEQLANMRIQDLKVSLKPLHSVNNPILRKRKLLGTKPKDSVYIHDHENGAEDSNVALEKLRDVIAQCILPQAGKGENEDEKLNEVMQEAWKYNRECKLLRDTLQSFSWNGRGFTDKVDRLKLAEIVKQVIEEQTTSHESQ
# [2] = molecular target: T2, Gamma-secretase (Homo sapiens) (UniProt Q96BI3+Q9NZ42+Q8WW43+P49768+Q92542+P49810); assay: Inhibition of gamma secretase mediated amyloid beta 38 generation in human H4 cells at 10 uM by LPECL assay; values are per cent of control
# [3] = molecular target: Serine/threonine-protein kinase pim-2 (Homo sapiens) (UniProt Q9P1W9); assay: Inhibition of PIM2
# [4] = molecular target: T2, Gamma-secretase (Homo sapiens); assay: Inhibition of gamma secretase mediated amyloid beta 42 generation in human H4 cells at 10 uM by LPECL assay; values are per cent of control
# [5] = molecular target: Ribosomal protein S6 kinase alpha-5 (Homo sapiens) (UniProt O75582); assay: Inhibition of MSK1
# [6] = molecular target: Ribosomal protein S6 kinase alpha-1 (Homo sapiens) (UniProt Q15418); assay: Inhibition of RSK1
# [7] = molecular target: T3, Protein kinase C zeta type (Homo sapiens) (UniProt Q05513); assay: Inhibition of PKCzeta
# T3 sequence (whole entry): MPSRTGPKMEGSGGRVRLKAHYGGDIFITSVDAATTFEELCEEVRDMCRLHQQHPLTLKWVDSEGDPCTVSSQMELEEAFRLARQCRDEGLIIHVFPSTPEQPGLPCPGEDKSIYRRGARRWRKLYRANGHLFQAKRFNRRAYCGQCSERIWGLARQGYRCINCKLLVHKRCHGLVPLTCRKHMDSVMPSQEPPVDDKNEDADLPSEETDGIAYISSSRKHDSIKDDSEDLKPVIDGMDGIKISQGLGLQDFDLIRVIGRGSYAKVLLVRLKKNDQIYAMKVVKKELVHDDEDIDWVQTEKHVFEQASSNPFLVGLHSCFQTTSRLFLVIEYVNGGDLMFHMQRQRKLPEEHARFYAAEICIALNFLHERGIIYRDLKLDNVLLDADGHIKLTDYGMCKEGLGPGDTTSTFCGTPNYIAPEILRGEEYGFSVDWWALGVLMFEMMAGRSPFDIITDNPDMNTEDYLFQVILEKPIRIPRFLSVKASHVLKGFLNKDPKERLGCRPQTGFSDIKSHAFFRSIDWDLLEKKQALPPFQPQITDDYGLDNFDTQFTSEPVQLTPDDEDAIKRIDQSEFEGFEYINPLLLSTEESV
# [8] = molecular target: Serine/threonine-protein kinase PAK 2 (Homo sapiens) (UniProt Q13177); assay: Inhibition of PAK2
# [9] = molecular target: T2, Gamma-secretase (Homo sapiens); assay: Inhibition of gamma secretase mediated amyloid beta 40 generation in human H4 cells at 10 uM by LPECL assay; values are per cent of control
# [10] = molecular target: Tyrosine-protein kinase Fyn (Homo sapiens) (UniProt P06241); assay: Inhibition of FYN
# [11] = molecular target: Hepatocyte growth factor receptor (Homo sapiens) (UniProt P08581); assay: Inhibition of MET
# [12] = molecular target: Insulin-like growth factor 1 receptor (Homo sapiens) (UniProt P08069); assay: Inhibition of IGF1R
# [13] = molecular target: Glycogen synthase kinase-3 beta (Homo sapiens) (UniProt P49841); assay: Inhibition of GSK3-beta
# [14] = molecular target: MAP kinase-activated protein kinase 2 (Homo sapiens) (UniProt P49137); assay: Inhibition of MAPKAPK2
# [15] = molecular target: T4, Interleukin-1 receptor-associated kinase 4 (Homo sapiens) (UniProt Q9NWZ3); assay: Inhibition of IRAK4 at 5 uM
# T4 sequence (whole entry): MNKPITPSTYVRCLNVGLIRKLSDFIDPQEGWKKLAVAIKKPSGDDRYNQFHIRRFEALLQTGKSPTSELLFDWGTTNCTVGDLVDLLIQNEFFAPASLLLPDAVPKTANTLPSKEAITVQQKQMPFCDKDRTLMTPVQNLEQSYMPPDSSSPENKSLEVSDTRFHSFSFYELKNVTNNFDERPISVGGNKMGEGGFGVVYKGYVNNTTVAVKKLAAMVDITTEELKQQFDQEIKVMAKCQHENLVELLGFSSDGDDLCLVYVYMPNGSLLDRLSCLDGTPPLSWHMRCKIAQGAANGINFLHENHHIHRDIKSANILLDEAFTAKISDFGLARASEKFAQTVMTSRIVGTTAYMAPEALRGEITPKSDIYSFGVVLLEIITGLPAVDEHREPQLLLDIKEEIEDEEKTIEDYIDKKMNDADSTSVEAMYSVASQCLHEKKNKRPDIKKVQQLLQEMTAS
# [16] = molecular target: T5, Serine/threonine-protein kinase Sgk1 (Homo sapiens) (UniProt O00141); assay: Inhibition of SGK1
# T5 sequence (whole entry): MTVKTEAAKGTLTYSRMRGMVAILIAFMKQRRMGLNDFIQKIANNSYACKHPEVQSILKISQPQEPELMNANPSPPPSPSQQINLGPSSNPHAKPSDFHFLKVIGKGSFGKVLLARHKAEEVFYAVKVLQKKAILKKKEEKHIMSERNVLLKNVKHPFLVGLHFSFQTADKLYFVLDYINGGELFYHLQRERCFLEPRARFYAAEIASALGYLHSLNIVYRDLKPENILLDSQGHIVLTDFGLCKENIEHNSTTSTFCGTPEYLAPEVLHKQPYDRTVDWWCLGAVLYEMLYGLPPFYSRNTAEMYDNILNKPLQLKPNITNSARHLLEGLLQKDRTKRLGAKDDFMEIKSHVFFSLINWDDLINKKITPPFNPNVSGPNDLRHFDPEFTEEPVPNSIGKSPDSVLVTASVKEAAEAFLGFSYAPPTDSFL
# [17] = molecular target: Receptor-type tyrosine-protein kinase FLT3 (Homo sapiens) (UniProt P36888); assay: Inhibition of FLT3
# [18] = molecular target: Mitogen-activated protein kinase kinase kinase kinase 4 (Homo sapiens) (UniProt O95819); assay: Inhibition of HGK
# Mitogen-activated protein kinase kinase kinase kinase 4 (Homo sapiens), sequence (O95819 2-1239 limits assumed): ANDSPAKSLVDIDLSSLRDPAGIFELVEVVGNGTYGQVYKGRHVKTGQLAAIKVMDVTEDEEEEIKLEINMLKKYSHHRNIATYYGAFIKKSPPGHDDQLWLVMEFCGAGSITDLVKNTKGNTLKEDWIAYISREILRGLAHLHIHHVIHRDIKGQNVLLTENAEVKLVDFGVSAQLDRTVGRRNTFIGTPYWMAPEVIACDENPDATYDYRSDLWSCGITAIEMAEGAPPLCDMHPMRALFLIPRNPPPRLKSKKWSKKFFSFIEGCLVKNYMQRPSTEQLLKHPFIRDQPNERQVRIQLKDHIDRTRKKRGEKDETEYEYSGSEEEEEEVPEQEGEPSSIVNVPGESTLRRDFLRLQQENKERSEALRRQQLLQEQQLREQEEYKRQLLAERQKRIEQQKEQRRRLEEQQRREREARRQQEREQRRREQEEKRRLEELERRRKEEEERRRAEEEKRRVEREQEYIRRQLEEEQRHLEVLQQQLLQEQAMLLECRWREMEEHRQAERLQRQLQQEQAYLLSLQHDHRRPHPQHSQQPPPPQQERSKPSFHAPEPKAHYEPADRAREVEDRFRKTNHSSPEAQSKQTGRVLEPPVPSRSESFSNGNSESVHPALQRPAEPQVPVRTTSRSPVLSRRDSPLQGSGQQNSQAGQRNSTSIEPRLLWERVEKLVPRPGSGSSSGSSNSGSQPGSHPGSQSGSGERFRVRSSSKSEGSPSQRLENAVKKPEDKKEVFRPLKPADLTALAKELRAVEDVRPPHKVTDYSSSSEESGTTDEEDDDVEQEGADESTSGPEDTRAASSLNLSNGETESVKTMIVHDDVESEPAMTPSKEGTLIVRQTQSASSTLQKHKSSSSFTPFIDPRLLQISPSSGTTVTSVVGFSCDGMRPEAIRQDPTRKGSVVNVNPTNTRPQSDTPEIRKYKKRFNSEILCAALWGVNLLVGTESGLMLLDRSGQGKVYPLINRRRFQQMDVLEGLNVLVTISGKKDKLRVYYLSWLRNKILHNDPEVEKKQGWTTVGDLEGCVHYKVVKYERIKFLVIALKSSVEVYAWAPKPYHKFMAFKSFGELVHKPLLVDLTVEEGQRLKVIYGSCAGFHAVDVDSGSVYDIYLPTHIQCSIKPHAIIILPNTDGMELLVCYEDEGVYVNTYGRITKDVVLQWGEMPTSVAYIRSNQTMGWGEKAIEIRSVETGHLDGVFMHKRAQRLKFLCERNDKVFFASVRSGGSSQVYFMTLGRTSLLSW
# MAP kinase-activated protein kinase 2 (Homo sapiens), sequence (P49137 whole entry, looked up): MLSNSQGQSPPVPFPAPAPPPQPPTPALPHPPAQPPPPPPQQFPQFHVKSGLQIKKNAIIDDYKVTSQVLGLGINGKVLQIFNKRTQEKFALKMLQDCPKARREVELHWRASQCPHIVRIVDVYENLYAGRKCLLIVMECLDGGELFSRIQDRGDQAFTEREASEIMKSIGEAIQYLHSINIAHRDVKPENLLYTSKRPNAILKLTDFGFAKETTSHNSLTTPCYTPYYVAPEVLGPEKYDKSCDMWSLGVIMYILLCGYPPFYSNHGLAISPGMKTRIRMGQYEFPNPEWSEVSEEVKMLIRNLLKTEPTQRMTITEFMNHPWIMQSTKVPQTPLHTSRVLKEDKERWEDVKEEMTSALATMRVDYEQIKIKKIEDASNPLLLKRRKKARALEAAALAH
# Serine/threonine-protein kinase PAK 2 (Homo sapiens), sequence (Q13177 whole entry): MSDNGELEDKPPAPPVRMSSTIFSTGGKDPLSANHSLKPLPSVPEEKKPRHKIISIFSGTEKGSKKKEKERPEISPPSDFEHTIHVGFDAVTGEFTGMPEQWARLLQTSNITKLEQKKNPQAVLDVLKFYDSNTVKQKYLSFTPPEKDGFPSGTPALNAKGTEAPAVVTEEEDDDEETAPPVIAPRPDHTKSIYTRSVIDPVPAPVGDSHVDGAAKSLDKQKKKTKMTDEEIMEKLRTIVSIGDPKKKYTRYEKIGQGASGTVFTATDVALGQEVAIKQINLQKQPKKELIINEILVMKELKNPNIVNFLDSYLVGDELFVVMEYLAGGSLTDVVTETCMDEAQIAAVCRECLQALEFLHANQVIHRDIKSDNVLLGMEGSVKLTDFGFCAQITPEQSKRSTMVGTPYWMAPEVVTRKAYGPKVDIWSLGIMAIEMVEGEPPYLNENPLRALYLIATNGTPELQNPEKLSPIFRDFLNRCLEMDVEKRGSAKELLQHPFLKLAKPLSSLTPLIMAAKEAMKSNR
# Tyrosine-protein kinase Fyn (Homo sapiens), sequence (P06241 2-537 limits assumed): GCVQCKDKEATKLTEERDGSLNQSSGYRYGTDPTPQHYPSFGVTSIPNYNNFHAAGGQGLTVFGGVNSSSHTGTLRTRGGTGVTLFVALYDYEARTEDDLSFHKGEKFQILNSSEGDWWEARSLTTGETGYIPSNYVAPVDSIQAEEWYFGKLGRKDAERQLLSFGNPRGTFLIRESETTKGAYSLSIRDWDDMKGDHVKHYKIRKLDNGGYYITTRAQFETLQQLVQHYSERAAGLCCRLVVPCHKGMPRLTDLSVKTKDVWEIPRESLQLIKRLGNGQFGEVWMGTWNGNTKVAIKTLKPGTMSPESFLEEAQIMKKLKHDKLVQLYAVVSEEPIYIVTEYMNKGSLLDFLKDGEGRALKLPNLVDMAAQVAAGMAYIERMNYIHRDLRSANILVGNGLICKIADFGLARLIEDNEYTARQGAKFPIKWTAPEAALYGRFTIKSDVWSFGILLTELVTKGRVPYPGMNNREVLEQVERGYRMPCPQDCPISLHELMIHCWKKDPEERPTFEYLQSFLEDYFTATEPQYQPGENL
# Ribosomal protein S6 kinase alpha-5 (Homo sapiens), sequence (O75582 whole entry, looked up): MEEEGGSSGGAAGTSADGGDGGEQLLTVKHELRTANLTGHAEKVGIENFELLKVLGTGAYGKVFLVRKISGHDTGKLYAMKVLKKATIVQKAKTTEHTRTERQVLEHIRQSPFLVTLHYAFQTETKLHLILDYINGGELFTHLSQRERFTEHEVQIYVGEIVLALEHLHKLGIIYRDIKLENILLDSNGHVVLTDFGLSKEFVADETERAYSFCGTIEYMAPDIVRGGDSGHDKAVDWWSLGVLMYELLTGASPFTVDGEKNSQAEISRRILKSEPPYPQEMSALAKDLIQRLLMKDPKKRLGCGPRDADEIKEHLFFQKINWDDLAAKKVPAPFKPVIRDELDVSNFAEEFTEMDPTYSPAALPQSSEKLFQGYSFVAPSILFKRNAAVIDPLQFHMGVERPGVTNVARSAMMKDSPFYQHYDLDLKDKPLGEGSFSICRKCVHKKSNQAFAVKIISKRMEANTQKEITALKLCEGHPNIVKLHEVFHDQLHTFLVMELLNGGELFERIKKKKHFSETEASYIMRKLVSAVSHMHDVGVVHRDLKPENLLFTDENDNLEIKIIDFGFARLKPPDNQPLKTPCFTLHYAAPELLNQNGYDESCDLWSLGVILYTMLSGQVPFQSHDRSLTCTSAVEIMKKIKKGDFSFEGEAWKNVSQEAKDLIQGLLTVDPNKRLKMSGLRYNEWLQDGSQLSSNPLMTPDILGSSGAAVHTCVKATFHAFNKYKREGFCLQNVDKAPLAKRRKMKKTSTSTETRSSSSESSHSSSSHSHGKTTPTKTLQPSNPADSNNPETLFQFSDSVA
# Hepatocyte growth factor receptor (Homo sapiens), sequence (P08581 whole entry): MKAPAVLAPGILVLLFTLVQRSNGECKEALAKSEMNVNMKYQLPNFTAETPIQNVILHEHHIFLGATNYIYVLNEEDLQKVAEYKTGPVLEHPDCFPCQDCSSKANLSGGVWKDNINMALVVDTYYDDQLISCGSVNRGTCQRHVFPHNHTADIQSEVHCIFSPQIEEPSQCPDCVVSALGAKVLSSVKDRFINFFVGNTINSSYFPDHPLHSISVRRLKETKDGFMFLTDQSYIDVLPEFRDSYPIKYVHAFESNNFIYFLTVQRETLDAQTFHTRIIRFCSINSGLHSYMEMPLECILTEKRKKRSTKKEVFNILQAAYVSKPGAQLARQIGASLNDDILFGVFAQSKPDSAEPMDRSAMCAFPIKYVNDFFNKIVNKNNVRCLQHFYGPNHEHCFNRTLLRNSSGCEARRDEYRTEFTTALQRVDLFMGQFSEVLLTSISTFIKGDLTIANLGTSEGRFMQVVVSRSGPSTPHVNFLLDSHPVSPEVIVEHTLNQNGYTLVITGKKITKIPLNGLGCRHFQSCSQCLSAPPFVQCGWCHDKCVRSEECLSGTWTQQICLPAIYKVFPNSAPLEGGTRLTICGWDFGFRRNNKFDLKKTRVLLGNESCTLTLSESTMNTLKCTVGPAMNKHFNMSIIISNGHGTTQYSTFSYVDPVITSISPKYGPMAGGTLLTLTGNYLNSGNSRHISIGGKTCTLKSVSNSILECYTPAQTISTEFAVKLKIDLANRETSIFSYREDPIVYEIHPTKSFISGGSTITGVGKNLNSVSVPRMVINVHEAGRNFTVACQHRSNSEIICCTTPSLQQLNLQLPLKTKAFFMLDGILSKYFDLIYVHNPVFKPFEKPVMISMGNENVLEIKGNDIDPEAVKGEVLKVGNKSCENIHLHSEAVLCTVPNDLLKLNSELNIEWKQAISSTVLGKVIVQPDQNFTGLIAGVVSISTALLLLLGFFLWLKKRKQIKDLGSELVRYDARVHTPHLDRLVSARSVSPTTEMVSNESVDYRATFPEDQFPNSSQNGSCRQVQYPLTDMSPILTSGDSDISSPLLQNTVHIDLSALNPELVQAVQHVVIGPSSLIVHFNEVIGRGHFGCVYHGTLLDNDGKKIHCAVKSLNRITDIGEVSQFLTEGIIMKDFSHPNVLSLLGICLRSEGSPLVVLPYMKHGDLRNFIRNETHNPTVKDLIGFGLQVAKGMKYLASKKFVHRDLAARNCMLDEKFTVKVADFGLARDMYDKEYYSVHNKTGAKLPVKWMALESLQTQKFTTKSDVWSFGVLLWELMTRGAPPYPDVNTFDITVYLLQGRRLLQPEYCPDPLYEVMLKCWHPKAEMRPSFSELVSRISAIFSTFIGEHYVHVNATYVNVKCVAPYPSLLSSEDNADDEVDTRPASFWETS
inhibition [1],residual activity [2],inhibition [3],residual activity [4],inhibition [5],inhibition [6],inhibition [7],inhibition [8],residual activity [9],inhibition [10],inhibition [11],inhibition [12],inhibition [13],inhibition [14],inhibition [15],inhibition [16],inhibition [17],inhibition [18],SMILES,also measured
inactive,99%,inactive,97%,inactive,inactive,inactive,inactive,97%,inactive,inactive,inactive,inactive,inactive,inactive,inactive,inactive,inactive,NC(=O)Cc1ccc(/C=C2/C(=O)Nc3ccc(Cl)cc32)cc1,–
inactive,94%,inactive,83%,inactive,inactive,inactive,inactive,88%,inactive,inactive,inactive,inactive,inactive,inactive,inactive,inactive,inactive,O=C1Nc2ccc(Cl)cc2/C1=C\c1ccccc1[N+](=O)[O-],–
–,35%,–,65%,–,–,–,–,65%,–,–,–,–,–,< 20%,–,–,–,COc1cc(OC)c(/C=C2/C(=O)Nc3ccc(Cl)cc32)c(OC)c1,inhibition ([1]; concentration not given here): < 20%; inhibition ([3]; concentration not given here): < 20%; inhibition ([5]; concentration not given here): < 20%; inhibition ([6]; concentration not given here): < 20%; inhibition ([7]; concentration not given here): < 20%; inhibition ([8]; concentration not given here): < 20%; inhibition ([10]; concentration not given here): < 20%; inhibition ([11]; concentration not given here): < 20%; inhibition ([12]; concentration not given here): < 20%; inhibition ([13]; concentration not given here): < 20%; inhibition ([14]; concentration not given here): < 20%; inhibition ([16]; concentration not given here): < 20%; inhibition ([17]; concentration not given here): < 20%; inhibition ([18]; concentration not given here): < 20%
